Measured values reported in patent US6492393B1, “Compounds useful as anti-inflammatory agents” (Boehringer Ingelheim Pharmaceuticals, Inc., priority 1999, dated 2002).

The compounds below were run on TNFα in lipopolysaccharide stimulated THP cells (assay: Inhibition of TNF Production in THP Cells). Conditions: LPS (1 μg/mL) stimulated THP.1 cells, 18-24 hr incubation, human TNFα by ELISA.
Format: cell-based
Description: Inhibition of TNF Production in THP Cells
The inhibition of cytokine production can be observed by measuring inhibition of TNFα in lipopolysaccharide stimulated THP cells (for example, see W. Prichett et al., 1995, J. Inflammation, 45, 97). All cells and reagents were diluted in RPMI 1640 with phenol red and L-glutamine, supplemented with additional L-glutamine (total: 4 mM), penicillin and streptomycin (50 units/ml each) and fetal bovine serum (FBS, 3%) (GIBCO, all conc. final). Assay was performed under sterile conditions; only test compound preparation was nonsterile. Initial stock solutions were made in DMSO followed by dilution into RPMI 1640 2-fold higher than the desired final assay concentration. Confluent THP.1 cells (2×10^6 cells/mL, final conc.; […], Rockville, Md.) were added to 96 well polypropylene round bottomed culture plates (Costar 3790; sterile) containing 125 μL test compound (2 fold concentrated) or DMSO vehicle (controls, blanks). […] Cell mixture was allowed to preincubate for 30 min, 37° C., 5% CO2 prior to stimulation with lipopolysaccharide (LPS; 1 μg/mL final; Siga L-2630, from E. coli serotype 0111.B4; stored as 1 mg/mL stock in endotoxin screened distilled H2O at −80° C.). Blanks (unstimulated) received H2O vehicle; final incubation volume was 250 μl. Overnight incubation (18-24 hr) proceeded as described above. Assay was terminated by centrifuging plates 5 min, room temperature, 1600 rpm (400×g); supernatants were transferred to clean 96 well plates and stored −80° C. until analyzed for human TNFα by a commercially available ELISA kit (Biosource #KHC3015, Camarillo, Calif.). Data was analyzed by non-linear regression (Hill equation) to generate a dose response curve using SAS Software System (SAS institute, Inc., Cary, N.C.). The calculated IC50 value is the concentration of the test compound that caused a 50% decrease in the maximal TNFα production.

| Structure (SMILES) | IC50 [µM] |
| --- | --- |
| COc1ccc(C(C)(C)C)cc1NC(=O)Nc1ccc(OCCN2CCOC(COc3ccccc3)C2)c2ccccc12 (stereo not shown) [1-[5-tert-butyl-2-methoxyphenyl]-3-[4-(2-(2-phenoxymethyl)morpholin-4-yl-ethoxy)-naphthalen-1-yl]-urea] | < 10 |
| CC(C)(C)c1cc(Br)c(NCCN2CCOCC2)c(NC(=O)Nc2ccc(OCCN3CCOCC3)c3ccccc23)c1 [1-[3-Bromo-5-tert-butyl-2-(2-morpholin-4-yl-ethylamino)-phenyl]-3-[4-(2-morpholin-4-yl-ethoxy)-naphthalen-1-yl]-urea] | < 10 |
| Cc1ccc(C(C)(C)C)cc1NC(=O)Nc1ccc(Oc2ccnc(N)c2)c2ccccc12 [1-(5-tert-Butyl-2-methylphenyl)-3-[4-(2-aminopyridin-4-yl-oxy)naphthalen-1-yl]urea] | < 10 |
| Cc1ccc(C(C)(C)C)cc1NC(=O)Nc1ccc(OCCN2CCOCC2)c2ccccc12 [1-[5-tert-butyl-2-methylphenyl]-3-[4-(2-morpholin-4-yl-ethoxy)-naphthalen-1-yl]-urea] | < 10 |
| CC(C)(C)c1ccc(N2CCOCC2)c(NC(=O)Nc2ccc(OCCN3CCOCC3)c3ccccc23)c1 [1-(5-tert-Butyl-2-morpholin-4-yl-phenyl)-3-[4-(2-morpholin-4-yl-ethoxy)-naphthalen-1-yl]-urea] | < 10 |

Results, then the compound that gave them:

| IC50 [µM] | Structure (SMILES) |
| --- | --- |
| < 10 | Cc1ccc(C(C)(C)C)cc1NC(=O)Nc1ccc(Oc2ccncc2)c2ccccc12 [1-[5-tert-butyl-2-methylphenyl]-3-[4-(4-pyridinyloxy)-naphthalen-1-yl]-urea] |
| < 10 | Cc1ccc(C(C)(C)C)cc1NC(=O)Nc1ccc(Oc2cccnc2)c2ccccc12 [1-[5-tert-butyl-2-methylphenyl]-3-[4-(3-pyridinyloxy)-naphthalen-1-yl]-urea] |
